This is an account of results in patent US20140336182A1, “Aurora Kinase Modulators and Method of Use” (Amgen Inc., priority 2013, published 2014).

The first assay deals with HeLa cells. Description: HeLa cell 24 hr ploidy assay (DNA content). It counts as cell-based. To be noted: HeLa cells, 4N ploidy, average, read-out: 24h_4NPloidy EC50_IP (uM Avg). The essentials:
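DNA content measured by Hoechst 33342 nuclear staining (0.5 ug/ml, 45 min RT) and high-content imaging of fixed HeLa cells after 24 h compound exposure in 0.25% DMSO. Fractions of 4N and >4N cells fitted to dose curves giving EC50 IP, EC50 transit, Max and Min.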
With `Clc1ccc(-c2nnc(Nc3ccc(Sc4ccnc5cccnc45)cc3)c3ccccc23)cc1` [Example 33, N-(4-(1,5-naphthyridin-4-ylthio)phenyl)-4-(4-chlorophenyl)phthalazin-1-amine], the EC50 is 0.002 µM.

Still in this assay, the particulars now being: Homo sapiens, HeLa, 4N ploidy, average, read-out: 24h_4NPloidy EC50_IP (uM Avg).
For the molecule `COc1cnc2c(Oc3ccc(Nc4nnc(-c5ccc(C(C)C)cc5)c5ccccc45)cc3)ccnc2c1` [compound 155], the EC50 stood at 0.068 µM.

With `COc1ccc(F)cc1-c1nnc(Nc2ccc(Oc3ccnc4cc(C(N)=O)ccc34)cc2)c2ccccc12` [Example 47, 4-(4-(4-(5-fluoro-2-methoxyphenyl)phthalazin-1-ylamino)phenoxy)quinoline-7-carb oxamide], the EC50 is > 1.2 µM.

For `COc1cnc2c(Oc3ccc(Nc4nnc(-c5nc(C)cs5)c5ccccc45)cc3)ccnc2c1` [compound 82, N-(4-((7-(methyloxy)-1,5-naphthyridin-4-yl)oxy)phenyl)-4-(4-methyl-1,3-thiazol-2-yl)-1-phthalazinamine], the EC50 worked out at 0.061 µM.

Consider `COc1cnc2c(Oc3ccc(Nc4nnc(-c5ccccc5)cc4C)cc3)ccnc2c1` [compound 107], for which the EC50 was 0.39 µM.

As to `COc1cnc2c(Oc3ccc(Nc4nnc(N5CCCCC5)c5ccccc45)cc3)ccnc2c1` [compound 151], the EC50 was determined as 0.128 µM.

With `COc1cc2ncnc(Oc3ccc(Nc4nnc(-c5cc(C)ccn5)c5ccccc45)cc3)c2cc1OC` [compound 123], the EC50 came out at 0.077 µM.

Take `COc1cnc2c(Oc3ccc(Nc4nnc(-c5cc(C)cs5)c5ccccc45)cc3)ccnc2c1` [compound 152]: the EC50 worked out at 0.009 µM.

Still in this assay, the particulars now being: Homo sapiens, HeLa, HeLa cells, 4N ploidy, average, read-out: 24h_4NPloidy EC50_IP (uM Avg).
Turning to `c1ccc(-c2nnc(Nc3ccc(Sc4ccnc5ccncc45)cc3)c3ccccc23)cc1` [compound 425], the EC50 was 0.024 µM.

With `COc1ccc2nccc(Sc3ccc(Nc4nnc(-c5ccccc5)c5ccccc45)cc3)c2c1` [compound 292, N-(4-((6-(methyloxy)-4-quinolinyl)thio)phenyl)-4-phenyl-1-phthalazinamine], the EC50 was determined as 0.012 µM.

Turning to `FC(F)(F)Oc1ccc2nccc(Sc3ccc(Nc4nnc(-c5ccccc5)c5ccccc45)cc3)c2c1` [compound 571], the EC50 amounted to 0.06 µM.

For `Oc1cc(-c2nnc(Nc3ccc(Sc4ccnc5cccnc45)cc3)c3ccccc23)ccc1Cl` [compound 452], the EC50 was < 0.0023 µM.

As for `COc1cc2ncnc(Sc3ccc(Nc4nnc(-c5ccc(Cl)cc5)c5ccccc45)cc3)c2cc1OC` [compound 418], the EC50 stood at 0.004 µM.

For `N#Cc1cc2nccc(Sc3ccc(Nc4nnc(-c5ccc(Cl)cn5)c5ccccc45)cc3)c2s1` [compound 460], the EC50 came to 0.041 µM.

In the case of `COc1cnc2c(Sc3ccc(Nc4nnc(-c5ccc6c(c5)OCO6)c5ccccc45)cc3F)ccnc2c1` [compound 522], the EC50 came out at 0.001 µM.

In the case of `COc1cnc2c(Oc3ccc(Nc4nnc(-c5ccc(Cl)cn5)c5ccccc45)cc3)ccnc2c1` [compound 228, 4-(5-chloro-2-pyridinyl)-N-(4-((7-(methyloxy)-1,5-naphthyridin-4-yl)oxy)phenyl)-1-phthalazinamine], the EC50 worked out at 0.035 µM.

Take `COc1cnc2c(Oc3ccc(Nc4nnc(-c5cc(F)cc(F)c5)c5ccccc45)cc3)ccnc2c1` [compound 539]: the EC50 amounted to 0.081 µM.

For `Cc1cccc(-c2nnc(Nc3ccc(Sc4ccnc5ccoc45)cc3)c3ccccc23)n1` [compound 488], the EC50 is 0.241 µM.

On to `Clc1ccc(-c2nnc(Nc3ccc(Oc4ncnc5ccccc45)cc3)c3ccccc23)cc1` [compound 562], for which the EC50 was 0.026 µM.

Regarding `COc1cnc2c(Oc3ccc(Nc4nnc(C#CC(C)(C)C)c5ccccc45)cc3)ccnc2c1` [Example 31, 4-(3,3-dimethylbut-1-ynyl)-N-(4-(7-methoxy-1,5-naphthyridin-4-yloxy)phenyl)phthalazin-1-amine], the EC50 was 0.045 µM.

For the molecule `Fc1ccc2c(Oc3ccc(Nc4nnc(-c5ccc(Cl)cc5)c5ccccc45)cc3)ccnc2c1` [compound 455], the EC50 was 0.008 µM.

Take `C#Cc1ccc(-c2nnc(Nc3ccc(Oc4ccnc5cc(OC)cnc45)cc3)c3ccccc23)cc1` [compound 287]: the EC50 stood at 0.06 µM.

In the case of `COc1cnc2c(Oc3ccc(Nc4nnc(-c5ccc(Cl)cc5C)c5ccccc45)cc3)ccnc2c1` [compound 233], the EC50 stood at 0.6 µM.

Turning to `c1ccc(-c2nnc(Nc3ccc(Oc4ccnc5cc(-c6ccoc6)ccc45)cc3)c3ccccc23)cc1` [compound 343], the EC50 worked out at 0.025 µM.

As for `COc1ccc2c(Sc3ccc(Nc4nnc(-c5ccccc5)c5ccccc45)cc3)ccnc2c1` [compound 331], the EC50 was found to be 0.021 µM.

As to `COc1cnc2c(Oc3ccc(Nc4nnc(-c5cc(C)c(C)s5)c5ccccc45)cc3)ccnc2c1` [compound 260], the EC50 turned out to be 0.002 µM.

As for `COc1cnc2c(Sc3ccc(Nc4nnc(N5CCN(CC(F)F)CC5)c5ccccc45)cc3)ccnc2c1` [compound 507], the EC50 was found to be 0.018 µM.

Take `COc1cnc2c(Sc3ccc(Nc4nnc(-c5ccn(C)c(=O)c5)c5ccccc45)cc3)ccnc2c1` [Example 396, 4-(4-(4-(7-Methoxy-1,5-naphthyridin-4-ylthio)phenylamino)phthalazin-1-yl)-1-methylpyridin-2(1 H)-one]: the EC50 was 0.008 µM.

In the case of `COc1cnc2c(Oc3ccc(Nc4nnc(-c5ccc(Cl)cc5OC)c5ccccc45)cc3)ccnc2c1` [compound 253], the EC50 came to 0.835 µM.

For `CCc1cc(-c2ccccc2)nnc1Nc1ccc(Sc2ccnc3cc(OC)cnc23)cc1` [compound 274, 4-ethyl-N-(4-(7-methoxy-1,5-naphthyridin-4-ylthio)phenyl)-6-phenylpyridazin-3-amine], the EC50 was determined as 0.029 µM.

Consider `COc1cnc2c(Oc3ccc(Nc4nnc(-c5ccc6sc(C)nc6c5)c5ccccc45)cc3)ccnc2c1` [compound 195, 4-(2-methyl-1,3-benzothiazol-5-yl)-N-(4-((7-(methyloxy)-1,5-naphthyridin-4-yl)oxy)phenyl)-1-phthalazinamine], for which the EC50 is 0.197 µM.

`Clc1ccc(-c2nnc(Nc3ccc(Sc4ccnc5cc(C6CC6)oc45)cc3)c3ccccc23)cc1` [compound 486]: the EC50 turned out to be 0.002 µM.

As for `COc1cccc(-c2nnc(Nc3ccc(Oc4ccnc5cc(-c6cncn6C)sc45)cc3)c3ccccc23)n1` [compound 240], the EC50 was 0.01 µM.

As for `N#Cc1cc2nccc(Sc3ccc(Nc4nnc(-c5ccc(Cl)cc5)c5ccccc45)cc3)c2s1` [compound 351], the EC50 worked out at 0.053 µM.

Regarding `Cc1noc(-c2cc3nccc(Oc4ccc(Nc5nnc(-c6ccccc6)c6ccccc56)cc4)c3s2)n1` [compound 288], the EC50 came to 0.828 µM.

Consider `Clc1ccc(-c2nnc(Nc3ccc(Sc4ccnc5cccnc45)cc3)c3ccccc23)nc1` [compound 493], for which the EC50 amounted to 0.016 µM.

For the molecule `COCCOc1ccc(-c2nnc(Nc3ccc(Sc4ccnc5cc(OC)cnc45)cc3)c3ccccc23)cc1OCCOC` [compound 473], the EC50 is 0.1 µM.

`Clc1ccc(-c2nnc(Nc3ccc(Sc4ccnc5cc(Br)cnc45)cc3)c3ccccc23)cc1` [compound 324]: the EC50 amounted to 0.029 µM.

For the molecule `COCCOc1ccc2c(Sc3ccc(Nc4nnc(-c5ccc(Cl)cc5)c5ccccc45)cc3)ccnc2c1` [compound 431], the EC50 was 0.01 µM.

Staying with this assay, now noted: Homo sapiens, HeLa, HeLa cells, average, read-out: 24h_4NPloidy EC50_IP (uM Avg).
As to `CCc1cc(-c2ccccc2OC)nnc1Nc1ccc(Sc2ccnc3cc(OC)cnc23)cc1` [compound 609], the EC50 stood at 0.055 µM.

Turning to `COc1ccc2c(C(=O)c3ccc(Nc4nnc(-c5ccc(Cl)cc5)c5ccccc45)cc3)ccnc2c1` [compound 615], the EC50 stood at 0.15 µM.
